# According to patent publication US7015312B1, “Antibodies to the protein product encoded by ORF3 of the TRP-1 gene and compositions and kits thereof” (The United States of America as represented by the …, priority 1996, dated 2006):
# Entries after “also recorded” stand apart in the source; their conditions may differ.
# Key:
# Assay type in all cases: cell-based, human
# TIL586 [1] = test: GM-CSF release by TIL586 co-incubated with peptide-pulsed target cells; parameters: GM-CSF release: unit not given here; settings: for Recognition by TIL586 / stimulation of GM-CSF release (in words): peptide pulsed onto 586EBV B cells (A31+); for GM-CSF release: 586EBV cells pulsed with peptide 1 μg/ml for 90 min, co-incubated with TIL586, TIL586 alone subtracted
# Protocol: Transfection and cytokine assays were performed as FIG. 1A and b. 586mel and 397mel were included as positive and negative controls for the reactivity of TIL586. The ORF3P peptide was incubated with 586EBV (A31+) and T2 (non-A31) cells at a concentration of 1 μg/ml for 90 min.
# The following chemicals and reagents were purchased from the sources indicated: RPMI 1640, AIM-V media, Lipofectamine, G418 (GIBCO BRL, Gaithersberg, Md.); the eukaryotic expression vector pCR3 (Invitrogen, San Diego, […] containing 120 IU/ml of IL-2. TIL586 was added and incubated for additional 18–24 h, 100 μl of supernatant was collected for GM-CSF assay.
# TIL586 [2] = test: Cytotoxic lysis of peptide-pulsed target cells by TIL586, 4-h chromium release assay; settings: for % Specific lysis (E:T 20:1): 586EBV cells pulsed with peptide 1 μg/ml, TIL586 E:T 20:1, 4-h chromium release; for Sensitization of peptide-pulsed 586EBV B cells for lysis by TIL586 (in words): peptide pulsed onto 586EBV B cells
# Protocol: 586EBV B cells were incubated with ORF3P (pep) (—▴—), with an irrelevant peptide (ipep) (—●—) without peptide (—Δ—) and T2 cells pulsed with ORF3P (—∘—) as marked. After incubation, TIL586 was added and mixed with the target cells. Cytolytic activity of TIL586 was measured in a 4 h chromium release assay.
# 586EBV cells were separately incubated with serial dilutions of ORF3P (pep) (—▴—) or irrelevant peptides (ipep) (—●—) and T2 cells with the ORF3P (peptide (—∘—) for 90 min. The cytolytic activity of TIL586 was evaluated in a 4h […] release assay at an effector: target (E:T) ratio of 40:1.
# (§1) Cytolytic assays was done as previously described (Kawakami, Y et al., 1994, Proc. Natl. Acad. Sci. USA 91:6458–62). Briefly, the target cells were labeled with chromium for 90 min. After washing three times, the cells were incubated with peptides at a concentration of 1 μg/ml for 90 min. The cells were washed again, counted, and then mixed with TIL586 at the indicated ratio of effector : targets (E:T). Chromium release was measured after 4 h incubation. The peptides were synthesized by a solid-phase method using a peptide synthesizer (Model AMS 422, Gibson Co., Inc., Worthington, Ohio). Some peptides were purified by HPLC and had greater than 98% in purity. For titration of the ORF3P peptide recognized by TIL586, 586EBV B cells were incubated with various concentrations of the purified ORF3P peptide. Percentage of specific lysis was determined from the equation (A-B)/(C-B)×100 where A is lysis of 586EBV B cells by TIL586 in the presence of a peptide, B is spontaneous release from 586EBV B cells in presence of the same peptide but in the absence of effector cells, and C is the maximum chromium release.
# TIL586 [3] = test: GM-CSF release by TIL586 co-incubated with peptide-pulsed target cells
# TIL586 [4] = test: Cold target inhibition of lysis of 51Cr-labeled 586mel by TIL586; settings: TIL586, E:T 20:1, 4 h
# Protocol: 586EBV cells pulsed with ORF3P (—▴—), with irrelevant peptide (—Δ—) and T2 cells loaded with ORF3P (—□—) were used as “cold” target cells. After washing, “hot” and “cold” target cells were counted again and mixed at the “cold”/“hot” ratio of 1:1, 5:1, 10:1, and 20:1. TIL586 was added at an effector; “hot” target (E:T) ratio of 20:1. Chromium release was measured after 4 h incubation.
# as §1, with “For titration of the ORF3P peptide recognized by TIL586, 586EBV B cells were incubated with various concentrations of the purified ORF3P peptide.” left out, “release. […]” for “release.”
# TIL1200 = test: Cold target inhibition of lysis of 51Cr-labeled 624mel by TIL1200; settings: TIL1200 (gp100, HLA-A2), E:T 30:1, 4 h
# Protocol: “Cold” and “hot” target cells were mixed at the indicated ratios. TIL1200 was added at an effector: hot target (E:T) ratio of 30:1. Cytolytic activity of TIL1200 was evaluated in a 4-h ^51Cr release assay.
# as §1, with “release. […]” for “release.”
# [5] = system: T cell clones from TIL586; test: GM-CSF release by T cell clones generated from the TIL586 cell line; settings: six T cell clones, GM-CSF assay, 18–24 h
# Protocol: FIGS. 6A–6D show recognition of the antigenic peptide T cell clones from the TIL586 cell line. T cell clones were generated from the TIL586 cell line. 586EBV B cells were pulsed with the ORF3P peptide or irrelevant peptide. T cell clone or TIL586 cells were added and coincubated. For 586 mel, 397 mel/A31^+ tumors and melanocyte NHEM680 cells, 1×10^5 cells per well were incubated with 1×10^5 cells clones, TIL586-C1 (FIG. 6A), TIL586-C4 (FIG. 6B) and TIL586-C6 (FIG. 6C) or TIL586 (FIG. 6D) for 18–24 h, respectively. GM-CSF assay was performed as described in FIG. 1B.
# To address the question of whether TIL586 recognized a naturally processed peptide which is similar or identical to the ORF3P peptide on the tumor cells, the ability of the ORF3P peptide pulsed 586EBV B cells to inhibit lysis of ^51Cr-labeled 586mel in a cold-target inhibition assay was examined. […] To further test if T cell clones can recognize both the ORF3P peptide pulsed 586EBV B cells and tumor cell lines, T cell clones were generated from the TIL586 cell line by limiting dilution (1 cell/well in 96-well round bottom microplate) and further expanded in culture. […] T cell clones were further expanded in AIM-V medium containing 6000 IU/ml IL-2. […]
# [6] = 586EBV cells, TIL586 E:T 40:1, 4 h
Sequence,Recognition by TIL586 / stimulation of GM-CSF release (in words) (TIL586 [1]),GM-CSF release (TIL586 [1]),% Specific lysis (E:T 20:1) (TIL586 [2]),other results
SLQRQFLRT (listed as Homo sapiens) [peptide from ORF3],did not recognize,,,
"MSLQRLFLR (listed as Homo sapiens) [modified ORF3P, anchor residue substitution]",did not recognize,,,
SGHNCGTCR (listed as Homo sapiens) [synthetic peptide from ORF1 (gp75)],,<50,<10%,
ISLQRQFLR (listed as Homo sapiens),still recognized by TIL586 at comparable concentrations to that of the wild-type peptide,,,
"MSLQRQFLE (listed as Homo sapiens) [modified ORF3P, anchor residue substitution]",did not recognize,,,
"MRLQRQFLR (listed as Homo sapiens) [modified ORF3P, anchor residue substitution]",did not recognize,,,
IVRRNLLDLSK (listed as Homo sapiens) [synthetic peptide from ORF1 (gp75)],,<50,<10%,
LWDVPSWLER (listed as Homo sapiens),,<50,<10%,
MSLQRQFLRT (listed as Homo sapiens) [peptide from ORF3],did not recognize,,,
VWPLRFFNR (listed as Homo sapiens) [synthetic peptide from ORF1 (gp75)],,<50,<10%,
AACDQRVLIVR (listed as Homo sapiens) [synthetic peptide from ORF1 (gp75)],very weakly induced GM-CSF release,250,<10%,"Sensitization of target cells for lysis by TIL586 at high peptide concentration (TIL586 [2]; 10 μg/ml of peptide, data not shown): did not sensitize the target cells for lysis; Sensitization of peptide-pulsed 586EBV B cells for lysis by TIL586 (in words) (TIL586 [2]): failed to sensitive peptide-loaded 586EBV B for lysis by TIL586; Peptide concentration needed for weak stimulation of cytokine release from TIL586 (TIL586 [3]; incubated with 586EBV B cells): > 1 µg/mL"
"MSLQRQFLK (listed as Homo sapiens) [modified ORF3P, anchor residue substitution]",did not recognize,,,
AISQDTTVGR (listed as Homo sapiens) [synthetic peptide from ORF1 (gp75)],,<50,<10%,
"MLLQRQFLR (listed as Homo sapiens) [modified ORF3P, anchor residue substitution]",did not recognize,,,
"MALQRQFLR (listed as Homo sapiens) [modified ORF3P, substitution Ser with Ala at position 2]",recognized,,,
"MSLQRQFLR (listed as Homo sapiens) [ORF3P, antigenic nonamer peptide derived from ORF3 of the gp75 (TRP-1) gene]",strongly recognized by TIL586; also recorded: significantly increased,,,"Recognition by TIL586 / GM-CSF release, peptide on T2 cells (TIL586 [1]; peptide loaded onto T2 (non-HLA-A31) cells): not when peptide was loaded onto T2 (non-HLA-A31) cells; Peptide concentration at which lytic activity was still detected (TIL586 [2]; [6]): 1 nM; Peptide concentration giving maximal sensitization for lysis (TIL586 [2]; [6]): 100 nM; Lysis by TIL586 of T2 cells pulsed with peptide (TIL586 [2]; T2 (non-A31) cells pulsed with peptide): failed to lyse; Sensitization of peptide-pulsed 586EBV B cells for lysis by TIL586 (in words) (TIL586 [2]): lysed; Inhibition of lysis of 51Cr-labeled 586mel by cold peptide-pulsed 586EBV B cells (TIL586 [4]): Significant inhibition; Inhibition of lysis of 51Cr-labeled 624mel by cold peptide-pulsed 586EBV B cells (TIL1200): did not inhibit; Recognition of peptide-pulsed 586EBV B cells by T cell clones from TIL586 [5]: capable of recognizing; also recorded: recognized by six T cell clones derived from TIL586; Recognition by TIL586 / GM-CSF release, peptide on 1510EBV cells (TIL586 [3]; peptide pulsed onto allogeneic 1510EBV B (A31+) cells): observed only when the peptide was pulsed onto autologous 586EBV B cells and 1510EBV B (A31+) cells; also recorded: significantly increased"
DQRVLIVRR (listed as Homo sapiens) [synthetic peptide from ORF1 (gp75)],,<50,<10%,
LSKEEKNHFVR (listed as Homo sapiens) [synthetic peptide from ORF1 (gp75)],,<50,<10%,
CGTCRPGWR (listed as Homo sapiens) [synthetic peptide from ORF1 (gp75)],,<50,<10%,
DDREVWPLR (listed as Homo sapiens) [synthetic peptide from ORF1 (gp75)],,<50,<10%,
ACDQRVLIVRR (listed as Homo sapiens) [synthetic peptide from ORF1 (gp75)],,<50,<10%,
ACDQRVLIVR (listed as Homo sapiens) [synthetic peptide from ORF1 (gp75)],,<50,<10%,
